Legend:
5-HT3 receptor = target: T1, 5-HT3 receptor (Mus musculus, UniProt P23979); assay: Radioligand binding to 5-HT3 receptor subtypes derived from N1E-115 cells (Cerep); details: Table 3; ratio of IC50 at 5-HT3 to IC50 at 5-HT4
T1 construct: host or cells: N1E-115 cells
T1 sequence (P23979 24-489): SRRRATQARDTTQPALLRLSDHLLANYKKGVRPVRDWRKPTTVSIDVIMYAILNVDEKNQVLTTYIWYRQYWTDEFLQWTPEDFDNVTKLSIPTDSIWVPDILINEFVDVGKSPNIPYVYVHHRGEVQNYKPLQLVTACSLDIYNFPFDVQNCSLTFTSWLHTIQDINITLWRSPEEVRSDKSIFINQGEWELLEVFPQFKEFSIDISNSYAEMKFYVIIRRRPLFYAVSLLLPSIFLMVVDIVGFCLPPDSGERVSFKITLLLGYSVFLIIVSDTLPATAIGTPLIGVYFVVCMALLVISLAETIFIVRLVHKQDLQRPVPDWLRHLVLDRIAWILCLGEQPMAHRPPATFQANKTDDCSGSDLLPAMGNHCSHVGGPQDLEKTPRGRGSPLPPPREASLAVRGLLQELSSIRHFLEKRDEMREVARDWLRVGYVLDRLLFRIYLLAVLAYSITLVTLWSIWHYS
Protocol: Following incubation with the appropriate ligands, the preparations were rapidly filtered under vacuum through GF/B glass fiber filters and washed with ice-cold buffer using a Brandel or Packard cell harvester.
Specific radioligand binding to the receptor was defined as the difference between total binding and nonspecific binding determined in the presence of an excess of unlabeled ligand. Results were expressed as a percent inhibition of specific binding obtained in the presence of the compounds.

[1] = co-administration with ketoconazole; inhibition of metabolic elimination of cisapride; cited from earlier work

SMILES	5-HT3/5-HT4 Ratio (5-HT3 receptor)	increase of the steady-state plasma levels [1]
COc1cc(N)c(Cl)cc1C(=O)NC1CCNCC1OC (single isomer, unassigned; (-)) [(−) Norcisapride]	0.023	
COc1cc(N)c(Cl)cc1C(=O)N[C@H]1CCN(CCCOc2ccc(F)cc2)C[C@H]1OC (racemic) [(±) Cisapride, cis-4-amino-5-chloro-N-[1-[3-(4-fluorophenoxy)propyl]-3-methoxy-4-piperidinyl]-2-methoxybenzamide]		8 fold
COc1cc(N)c(Cl)cc1C(=O)NC1CCNCC1OC (racemic) [(±) Norcisapride, 4-amino-5-chloro-N-(3-methoxy-4-piperidinyl)-2-methoxybenzamide]	0.012	
COc1cc(N)c(Cl)cc1C(=O)NC1CCNCC1OC (single isomer, unassigned; (+)) [(+) Norcisapride]	0.014	

Source: patent US6548518B2, “Methods of treating gastro-esophogeal reflux disease using (-) norcisapride in combination with proton pump inhibitors or H2 receptor antagonists” (Sepracor, Inc., priority 1999, dated 2003)
